Assay results from PubChem BioAssay (NCI).
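In this assay, cells in 96-well plates receive the compound at five concentrations for 48 hours. Endpoints are linearly interpolated between the surrounding concentrations. The concentration for 50% growth inhibition is given as GI50. TGI: concentration producing complete growth inhibition.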

What was measured:
Experiment in all cases: NCI-60 cell line screen, 48 h
NCI-H460 lung = tested on: NCI-H460 lung
SNB-75 CNS = tested on: SNB-75 CNS
RPMI-8226 leukemia = tested on: RPMI-8226 leukemia
IGROV1 ovarian = tested on: IGROV1 ovarian
CCRF-CEM leukemia = tested on: CCRF-CEM leukemia
HCC-2998 colon = tested on: HCC-2998 colon
A549 NSCLC = tested on: A549 NSCLC
MOLT-4 leukemia = tested on: MOLT-4 leukemia
A498 renal = tested on: A498 renal
HOP-92 NSCLC = tested on: HOP-92 NSCLC

O=C(NN1C(=O)CSC12CCCC2)C(O)c1ccccc1 (stereo not given)
GI50 (NCI-H460 lung): > 100 µM | TGI (NCI-H460 lung): > 100 µM | GI50 (SNB-75 CNS): > 100 µM | TGI (SNB-75 CNS): > 100 µM | GI50 (RPMI-8226 leukemia): > 100 µM | TGI (RPMI-8226 leukemia): > 100 µM | GI50 (IGROV1 ovarian): > 100 µM | TGI (IGROV1 ovarian): > 100 µM | GI50 (CCRF-CEM leukemia): > 100 µM | TGI (CCRF-CEM leukemia): > 100 µM | GI50 (HCC-2998 colon): > 100 µM | TGI (HCC-2998 colon): > 100 µM | GI50 (A549 NSCLC): > 100 µM | TGI (A549 NSCLC): > 100 µM | GI50 (MOLT-4 leukemia): > 100 µM | TGI (MOLT-4 leukemia): > 100 µM | GI50 (A498 renal): > 100 µM | TGI (A498 renal): > 100 µM | GI50 (HOP-92 NSCLC): > 100 µM | TGI (HOP-92 NSCLC): > 100 µM

CC(C)CCC(=O)[C@@H](C)[C@H]1[C@@H](OC2OCC(O)C(O)C2NS(C)(=O)=O)C[C@H]2[C@@H]3CC=C4C[C@@H](O)CC[C@]4(C)[C@H]3CC[C@]12C (stereo not given in full)
GI50 (NCI-H460 lung): 1.42 µM | TGI (NCI-H460 lung): 4.86 µM | GI50 (SNB-75 CNS): 0.571 µM | TGI (SNB-75 CNS): 9.58 µM | GI50 (RPMI-8226 leukemia): 0.12 µM | TGI (RPMI-8226 leukemia): 0.419 µM | GI50 (IGROV1 ovarian): 2.22 µM | TGI (IGROV1 ovarian): > 40 µM | GI50 (CCRF-CEM leukemia): 0.424 µM | TGI (CCRF-CEM leukemia): 2.47 µM | GI50 (HCC-2998 colon): 5.04 µM | TGI (HCC-2998 colon): 11.7 µM | GI50 (A549 NSCLC): 3.55 µM | TGI (A549 NSCLC): 11.5 µM | GI50 (MOLT-4 leukemia): 0.827 µM | TGI (MOLT-4 leukemia): 2.57 µM | GI50 (A498 renal): 0.724 µM | TGI (A498 renal): 1.7 µM | GI50 (HOP-92 NSCLC): 3.02 µM | TGI (HOP-92 NSCLC): 10.6 µM

CC1=NN(C(=O)c2ccncc2)C(=O)C1N=Nc1ccc2ccccc2c1 (stereo not given)
TGI (NCI-H460 lung): > 100 µM | TGI (SNB-75 CNS): > 100 µM | TGI (RPMI-8226 leukemia): > 100 µM | TGI (IGROV1 ovarian): > 100 µM | TGI (CCRF-CEM leukemia): > 100 µM | TGI (HCC-2998 colon): 15.2 µM | TGI (A549 NSCLC): > 100 µM | TGI (MOLT-4 leukemia): > 38.1 µM | TGI (A498 renal): > 100 µM | TGI (HOP-92 NSCLC): > 100 µM

CC(C)(C)c1ccc(O)c(CN(Cc2cc(C(C)(C)C)ccc2O)C2CCCCC2)c1
TGI (NCI-H460 lung): 31.5 µM | TGI (SNB-75 CNS): 51.3 µM | TGI (RPMI-8226 leukemia): 25.1 µM | TGI (IGROV1 ovarian): 45.9 µM | TGI (CCRF-CEM leukemia): 99.9 µM | TGI (HCC-2998 colon): 4.48 µM | TGI (A549 NSCLC): > 56.7 µM | TGI (MOLT-4 leukemia): 49.8 µM | TGI (A498 renal): 31 µM | TGI (HOP-92 NSCLC): 23.9 µM

CC(=N)N(C)O
TGI (NCI-H460 lung): > 100 µM | TGI (SNB-75 CNS): > 100 µM | TGI (RPMI-8226 leukemia): > 100 µM | TGI (IGROV1 ovarian): > 100 µM | TGI (CCRF-CEM leukemia): 53.1 µM | TGI (HCC-2998 colon): > 100 µM | TGI (A549 NSCLC): > 100 µM | TGI (MOLT-4 leukemia): > 100 µM | TGI (A498 renal): > 100 µM | TGI (HOP-92 NSCLC): > 100 µM
